Tests used:
[1] = Cytotoxicity (CellTiter 96 Aqueous Non-Radioactive Cell Proliferation Assay); assay type: cell-based; settings: human, Huh7 cells
Protocol: Novel antibacterial peptidyl tRNA hydrolase inhibitors were identified using the MIC assay (inhibition ranged from 32-100%). The inhibitors were also bacteria specific, as evidenced by the low cytotoxicity observed for the human Huh7 cells (FIG. 4). Cytotoxicity was determined according to manufacturer's directions (CellTiter 96 Aqueous Non-Radioactive Cell Proliferation Assay, Promega).
Further data for representative compounds is set forth in Table 1 (MIC and cytotoxicity). Compounds were tested against S. aureus (ATCC 29213) and E. coli (BAS849—permeable) in the MIC assays. Certain compounds were also tested against other bacteria, including S. epidermis (ATCC 12228), E. faecium (ATCC 49624), and E. faecalis (ATCC 29212). Cytotoxicity was determined using Hu7 cells and Hep G2 cells. The MIC and cytotoxicity assays were performed as described above.

melting point [°C]	Compound	CC50 [1] [µM]
195 to 197	CC(=O)c1sc(N2C(=O)C(O)=C(C(=O)c3cc4ccccc4o3)C2c2ccc(OCc3ccccc3)cc2)nc1C (stereo not shown) [Compound 10]	> 89
–	COC(=O)c1sc(N2C(=O)C(O)=C(C(=O)c3ccc(F)cc3)C2c2ccc(F)cc2)nc1C (stereo not shown) [Compound 31]	46.5
–	Cc1nnc(N2C(=O)C(O)=C(C(=O)c3ccc(OC(C)C)cc3)C2c2ccco2)s1 (stereo not shown) [Compound 33]	> 110
–	CCOC(=O)c1sc(N2C(=O)C(O)=C(C(=O)c3ccc(F)cc3)C2c2cccs2)nc1C (stereo not shown) [Compound 40]	62.9
–	COc1ccc(C(=O)C2=C(O)C(=O)N(c3nccs3)C2c2ccc(Cl)cc2)cc1C (stereo not shown) [Compound 44]	51.5
–	CCOC(=O)c1sc(N2C(=O)C(O)=C(C(=O)c3ccco3)C2c2ccco2)nc1C (stereo not shown) [Compound 45]	96.2
–	Cc1nc(C)c(C(=O)C2=C(O)C(=O)N(c3nc4ccc(Cl)cc4s3)C2c2cccs2)s1 (stereo not shown) [Compound 49]	> 111
241 to 243	Cc1cnc(N2C(=O)C(O)=C(C(=O)c3cc4ccccc4o3)C2c2ccc(OCc3ccccc3)cc2)s1 (stereo not shown) [Compound 50]	82
213 to 214	O=C(C1=C(O)C(=O)N(c2nc3ccccc3s2)C1c1ccc(OCc2ccccc2)cc1)c1cc2ccccc2o1 (stereo not shown) [Compound 51]	82.3
150 to 154	O=C(C1=C(O)C(=O)N(c2nncs2)C1c1ccc(OCc2ccccc2)cc1)c1cc2ccccc2o1 (stereo not shown) [Compound 52]	> 90
193 to 195	O=C(C1=C(O)C(=O)N(c2nccs2)C1c1ccc(OCc2ccccc2)cc1)c1cc2ccccc2o1 (stereo not shown) [Compound 53]	> 98
205 to 208	CC(=O)c1sc(N2C(=O)C(O)=C(C(=O)c3cc4ccccc4o3)C2c2ccccc2)nc1C (stereo not shown) [Compound 54]	78.5
226 to 228	CC(=O)c1sc(N2C(=O)C(O)=C(C(=O)c3cc4ccccc4o3)C2c2ccc(-c3ccccc3)cc2)nc1C (stereo not shown) [Compound 55]	42.9
251 to 253	CC(=O)c1sc(N2C(=O)C(O)=C(C(=O)c3cc4ccccc4o3)C2c2ccc(Oc3ccccc3)cc2)nc1C (stereo not shown) [Compound 56]	> 984
186 to 188	CCCCOc1ccc(C2C(C(=O)c3cc4ccccc4o3)=C(O)C(=O)N2c2nc(C)c(C(C)=O)s2)cc1 (stereo not shown) [Compound 57]	> 91
169 to 171	Cc1coc(N2C(=O)C(O)=C(C(=O)c3cc4ccccc4o3)C2c2ccc(OCc3ccccc3)cc2)n1 (stereo not shown) [Compound 58]	> 94
–	Cc1ccc(C2C(C(=O)c3ccc(Cl)cc3)=C(O)C(=O)N2c2nccs2)cc1 (stereo not shown) [Compound 59]	60.5
–	CCc1ccc2nc(N3C(=O)C(O)=C(C(=O)c4ccccc4)C3c3cccs3)sc2c1 (stereo not shown) [Compound 118]	10.8
–	CCc1ccc2nc(N3C(=O)C(O)=C(C(=O)c4ccccc4)C3c3ccco3)sc2c1 (stereo not shown) [Compound 119]	10.8
–	CCc1ccc2nc(N3C(=O)C(O)=C(C(=O)c4ccco4)C3c3cccs3)sc2c1 (stereo not shown) [Compound 122]	58.2
–	Cc1cc(C)c2nc(N3C(=O)C(O)=C(C(=O)c4ccc5c(c4)OCCO5)C3c3cccnc3)sc2c1 (stereo not shown) [Compound 126]	27.4
